The values below come from US7205003B2, “Method and topical formulation for treating skin conditions associated with aging” (Dermatrends, Inc., priority 2001, dated 2007).

For data set [1] the following is noted: cited from earlier work.
The conditions of data set [2]: cited from earlier work. This is another data set of the same source.
The nature of data set [3]: in vitro keratolysis study: protein released from ground adult foot callus, BioRad protein assay. Here is the method:
An in vitro keratolysis study was performed to compare the capability of glycolic acid and a base for removing protein from stratum corneum. Adult foot callus was collected, grounded and the portion between 50–80 mesh was used. Glycolic acid and sodium hydroxide solutions (concentration =0.05 M) were prepared in distilled water. Ten mg of ground callus powder was place in a test tube. Four ml of a test chemical was added to the callus and the test tube was placed in a shaker and incubated in a water bath at 37° C. for a predetermined incubation time. The incubation time periods were 10 min., 40 min, 2 hours, 4 hours, 6 hours and 24 hours. Six samples of each base were tested a total of six times each at each of the aforementioned incubation time periods.
At the end of each incubation period, the test tube was removed from the shaker and the test tube was centrifuged. The solution was removed and filtered, and the protein in the solution was then determined using a BioRad® protein assay kit.

Setting [4] is: Example 1, 0.05 M, all time points, versus glycolic acid / water control.
Setting [5] is: Example 2, 0.05 M, 10 minutes, versus glycolic acid, other bases, water control.

Where two headings read alike, the source gives them in different places.

On to `O=P([O-])([O-])O.[Na+].[Na+]` [Sodium phosphate, dibasic], for which, in data set [1] (concentration not given), the “pH of Aqueous Solution” value was ~9.5.

Take `CC(C)(N)CO` [2-amino-2-methyl-1-propanol]: the “pH of Aqueous Solution” value in data set [1] (0.1 m) is given as 11.3 (0.1 m). For the compound `[O]=[Ca]` [Calcium oxide], in data set [2], the “solubility in water, in words” value was “Soluble in water, Form Ca(OH)2”. As to `CC(N)(CO)CO` [2-amino-2-methyl-1,3-propanediol], the “pH of Aqueous Solution” value in data set [1] (0.1 m) is on record as 10.8 (0.1 m).

Take `N.N.O=P(O)(O)O` [Ammonium phosphate, dibasic]: the “pH of Aqueous Solution” value in data set [1] (concentration not given) is ~8. On to `O=C([O-])[O-].[Na+].[Na+]` [Sodium carbonate anhydrous], for which, in data set [1] (concentration not given), the “pH of Aqueous Solution” value was ~11.6. As for `O=C([O-])CC(O)(CC(=O)[O-])C(=O)[O-].[K+].[K+].[K+]` [Potassium citrate], in data set [1] (concentration not given), the “pH of Aqueous Solution” value was ~8.5. For the compound `CC(=O)[O-].[Na+]` [Sodium acetate, anhydrous], the “pH of Aqueous Solution” value in data set [1] (0.1 N) is recorded as ~8.9 (0.1 N). Regarding `O.O.O.O.O.O.O.O.O.O.O.O.O=P([O-])([O-])[O-].[Na+].[Na+].[Na+]` [Sodium phosphate, tribasic dodecahydrate], the “pH of Aqueous Solution” value in data set [1] (0.1%) is recorded as 11.5; in data set [1] (0.5%) it was 11.7; in data set [1] (1.0% (1%)) it was 11.9. In the case of `[Na+].[OH-]` [NaOH, Sodium hydroxide], the “pH of Aqueous Solution” value was 12 in data set [1] (0.05%), 13 in data set [1] (0.5%) and 14 in data set [1] (5%). The “amounts of protein released at 6 hours and 24 hours versus 10 minutes, 40 minutes, 2 hours and 4 hours” value in data set [3] (Example 1, 0.05 M) is “significantly higher”. Moreover, the “protein released, comparison in words” value in data set [3] (setting [4]) and in data set [3] (setting [5]) was “released more protein” each time. In the case of `OCCNCCO` [Diethanolamine], the “pH of Aqueous Solution” value in data set [1] (0.1 N) was 11.0 (0.1 N).

With `N` [Ammonium hydroxide], the results for the “pH of Aqueous Solution” value in data set [1] (0.001 N) and in data set [1] (1 N) were 10.27 and 11.27, respectively. Regarding `O.O.O=P([O-])([O-])O.[Na+].[Na+]` [Sodium phosphate, dibasic, dihydrate], in data set [1] (concentration not given), the “pH of Aqueous Solution” value is recorded as ~9.5. With `[O]=[Mg]` [Magnesium oxide], the “pH of Aqueous Solution” value in data set [1] (saturated solution in water) is 10.3 (saturated aqueous solution). Consider `O.O.O.O.O.O.O.O.O.O.O.O.O=P([O-])([O-])O.[Na+].[Na+]` [Sodium phosphate, dibasic, dodecahydrate], for which the “pH of Aqueous Solution” value in data set [1] (concentration not given) is on record as ~9.5. Consider `O=C(O)CO` [Glycolic Acid, reference compound], for which the results for the “protein released, comparison in words” value in data set [3] (setting [4]) and in data set [3] (setting [5]) were “did not show statistical differences in comparison with water” and “did not show significant differences in comparison with water”, respectively. For the compound `O.O.O.O.O.O.O.O=P([O-])([O-])O.[Na+].[Na+]` [Sodium phosphate, dibasic, heptahydrate], the “pH of Aqueous Solution” value in data set [1] (concentration not given) is on record as ~9.5.

Take `O=P([O-])([O-])O.[Na+].[Na+]` [Sodium phosphate, dibasic, anhydrous]: the “pH of Aqueous Solution” value in data set [1] (1.0% (1%)) was 9.1 (1%).
